The values that follow come from US20110152166A1, “METHOD OF MODULATION OF PROTEIN PHOSPHORYLATION-DEPENDENT CONFORMATIONAL TRANSITIONS WITH LOW MOLECULAR WEIGHT COMPOUNDS” (priority 2006, published 2011).

The subject of test [1] is GST-S6K1-T2[Thr412Ala] in HEK 293 cells. Description: S6K activation loop phosphorylation in transfected HEK 293 cells. The class given is cell-based, human. Conditions: 200 μM, 90 minutes. As for the experimental part: FIG. 4—Small compounds designed to bind the HM/PIF-pocket of PDK1 can block the PDK1-dependent phosphorylation and activation of substrates that require docking to the HM/PIF-pocket of PDK1. (A) Effect of compound 1 (100 and 200 μM) on PDK1 phosphorylation of its substrate S6K1. The phosphorylation reaction was performed in vitro with [γ^32P]ATP and then separated on SDS-PAGE followed by exposure to phosphorimager. The radioactive band corresponding to phosphorylated GST-56K1-T2[Thr412Glu] (S6K[412E]) is indicated. (B) PDK1 or PDK1[Val127Leu] (PDK1[V127L]) were pre-incubated with GST-[…]N-SGK1 [Ser422Asp] […] (C) The activity of S6K was measured in vitro after glutathione sepharose purification; aliquots of purified proteins were separated on SDS-PAGE and the level of activation loop phosphorylation was visualized by immunoblotting using phospho-specific antibodies that recognize the phosphorylated activation loop, followed by stripping of the membranes and re-probing with anti-GST to verify the presence of equal amounts of protein. (D) Cells overexpressing GST-56K1-T2[Thr412Glu] were treated as in (C) but S6K activity was measured in vitro after immunoprecipitation of the GST-fusion protein with anti-GST antibodies; the level of S6K expression was analysed by western-blotting of crude extracts. […]

Test [2] has as its target T1, Thr221-phosphorylated S6K11-364 (Rattus norvegicus, UniProt P67999).
T1 construct: Purified HA-S6K1-364 was incubated with synthetic S6K1 (rat) tail peptides; made in house; host or cells: COS7, co-transfected with myc-PDK1; anti-HA immunoprecipitate
Description: S6K1 in vitro reconstitution kinase assay with tail peptides. The class given is biochemical. The source says: We established an in vitro reconstitution assay that could test a direct activation of the AGC kinase domain by the tail phosphate and characterize its cooperation with the HM and activation loop phosphates. The deletion mutant S6K11-364, which contains the kinase domain, but lacks the region of the tail containing the tail site and the HM as well as the C-terminal autoinhibitory domain, was expressed and purified from COS7 cells, either non-phosphorylated or phosphorylated at T221 in the activation loop, achieved by co-expression with PDK1. Purified S6K11-364 was then incubated with synthetic peptides of the S6K1 tail (residues 366-395: QTPVDS^371PDDSTLSESANQVFLGFT^389YVAPSV), which were either non-phosphorylated (S371/T389), phosphorylated at the tail site (pS371/T389), phosphorylated in the HM (S371/pT389) or phosphorylated at both sites (pS371/pT389). Subsequently, the kinase activity of S6K11-364 was determined.
Kinase assays for PKB, RSK, S6K, MSK were done as described previously (Frodin et al., 2002). […] After washing with 150 mM orthophosphoric acid, [^32P]phosphate incorporated into peptide substrate was quantified in an FLA-3000 apparatus (Fujifilm). […]

T1 sequence (P67999 24-387): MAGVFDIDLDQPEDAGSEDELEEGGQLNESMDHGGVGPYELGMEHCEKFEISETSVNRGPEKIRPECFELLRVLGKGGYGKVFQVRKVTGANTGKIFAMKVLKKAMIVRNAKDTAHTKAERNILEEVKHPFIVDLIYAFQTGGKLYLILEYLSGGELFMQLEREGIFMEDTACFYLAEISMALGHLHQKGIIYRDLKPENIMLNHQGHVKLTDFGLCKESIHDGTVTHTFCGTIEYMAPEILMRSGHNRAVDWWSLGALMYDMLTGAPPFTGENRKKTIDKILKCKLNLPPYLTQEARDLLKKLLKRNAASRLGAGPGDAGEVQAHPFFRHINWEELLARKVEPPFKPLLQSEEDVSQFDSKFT

Consider `O=C(O)CSC(CC(=O)c1ccc(Cl)cc1)c1ccccc1` (centres unmarked) [Compound 1], for which the “activation loop phosphorylation of S6K1-T2[Thr412Ala] (in words)” value in test [1] is listed as “significantly decreased”.
Regarding “S371/T389: synthetic S6K1 tail peptide (residues 366-395), non-phosphorylated”, the “stimulation of kinase activity (in words)” value in test [2] is on record as “did not stimulate”.
